Laboratory results published in US9096591B2, “Tetracyclic compounds” (Medivation Technologies, Inc., priority 2007, dated 2015).
Several values for one entry are separate records, joined by “and”; a condition that tells them apart may be missing. Equal values may be shown once.

Key:
[1] = target: T1, human recombinant dopamine D2L receptor (Homo sapiens, UniProt P14416); test: Dopamine D2L antagonist activity ([35S]GTPγS binding, SPA); type: biochemical
T1 construct: expressed in transfected cells; host or cells: CHO cells
T1 sequence (P14416 whole entry): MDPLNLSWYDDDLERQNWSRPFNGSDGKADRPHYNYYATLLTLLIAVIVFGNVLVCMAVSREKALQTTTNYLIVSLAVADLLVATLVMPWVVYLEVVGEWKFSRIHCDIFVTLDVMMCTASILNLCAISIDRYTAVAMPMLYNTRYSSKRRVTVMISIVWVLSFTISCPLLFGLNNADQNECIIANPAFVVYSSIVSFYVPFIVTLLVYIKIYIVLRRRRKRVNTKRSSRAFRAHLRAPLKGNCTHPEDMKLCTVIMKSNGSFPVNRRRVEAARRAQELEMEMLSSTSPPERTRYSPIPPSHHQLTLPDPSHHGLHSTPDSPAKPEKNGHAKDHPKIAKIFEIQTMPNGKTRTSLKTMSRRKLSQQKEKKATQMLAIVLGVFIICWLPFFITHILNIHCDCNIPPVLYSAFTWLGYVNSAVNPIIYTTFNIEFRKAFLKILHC
Protocol: To determine for agonist or antagonist activity of compounds of the invention in functional assays, human recombinant dopamine D2L receptor stably expressed in Chinese hamster ovary (CHO) cells (Senogles S E et al. J Biol Chem. 265(8): 4507, 1990) was used. Compounds of invention were pre-incubated with the membranes (0.1 mg/ml) and […] in modified HEPES buffer (20 mM HEPES, pH 7.4, 100 mM NaCl, 10 mM MgCl2, 1 mM DTT, 1 mM EDTA) for 20 minutes and Scintillation Proximity Assay (SPA) beads were added for another 60 minutes at 30° C. The reaction was initiated by 0.3 nM [^35S]GTPγS for an additional 15 minute incubation period. […] Compounds were screened at 3 μM or lower, using 0.4% DMSO as vehicle. Assay results are presented as the percent response of specific binding in Table 8.

[2] = target: human recombinant dopamine D2S receptor (Homo sapiens, UniProt P14416); test: Dopamine D2S antagonist activity ([35S]GTPγS binding, SPA); type: biochemical
Sequence of human recombinant dopamine D2S receptor (P14416 1-414 isoform P14416-2): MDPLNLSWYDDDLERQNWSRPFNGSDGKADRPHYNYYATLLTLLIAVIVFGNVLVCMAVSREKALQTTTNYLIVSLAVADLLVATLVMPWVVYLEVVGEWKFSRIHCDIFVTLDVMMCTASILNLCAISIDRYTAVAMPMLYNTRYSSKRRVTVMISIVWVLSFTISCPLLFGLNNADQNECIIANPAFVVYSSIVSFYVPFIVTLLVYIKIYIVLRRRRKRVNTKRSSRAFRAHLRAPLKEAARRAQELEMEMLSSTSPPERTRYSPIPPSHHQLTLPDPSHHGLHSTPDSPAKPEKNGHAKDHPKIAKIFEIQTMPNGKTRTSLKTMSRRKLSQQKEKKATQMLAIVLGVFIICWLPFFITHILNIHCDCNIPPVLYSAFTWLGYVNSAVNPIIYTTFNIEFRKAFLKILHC
Protocol: To determine for agonist or antagonist activity of compounds of the invention in functional assays, human recombinant dopamine D2S receptor stably expressed in Chinese hamster ovary (CHO) cells (Gilliland S L and Alper R H. Naunyn-Schmiedeberg's Archives of Pharmacology. 361: 498, 2000) was used. Compounds of invention were pre-incubated with the membranes (0.05 mg/ml) and 3 μM GDP in modified HEPES buffer (20 mM HEPES, pH 7.4, 100 mM NaCl, 10 mM MgCl2, 1 mM DTT, 1 mM EDTA) for 20 minutes and Scintillation Proximity Assay (SPA) beads were then added for another 60 minutes at 30° C. The reaction was initiated by 0.3 nM [^35S]GTPγS for an additional 30 minute incubation period. […] Compounds were screened at 3 μM or lower, using 0.4% DMSO as vehicle. Assay results are presented as the percent response of specific binding in Table 9.

[3] = target: T2, human recombinant serotonin 5-HT2A receptor (Homo sapiens, UniProt P28223); test: Serotonin 5-HT2A agonist/antagonist functional assay (calcium fluorescence, HEK-293); type: cell-based; details: antagonist mode
T2 construct: expressed in transfected cells; host or cells: HEK-293 cells
T2 sequence (P28223 whole entry): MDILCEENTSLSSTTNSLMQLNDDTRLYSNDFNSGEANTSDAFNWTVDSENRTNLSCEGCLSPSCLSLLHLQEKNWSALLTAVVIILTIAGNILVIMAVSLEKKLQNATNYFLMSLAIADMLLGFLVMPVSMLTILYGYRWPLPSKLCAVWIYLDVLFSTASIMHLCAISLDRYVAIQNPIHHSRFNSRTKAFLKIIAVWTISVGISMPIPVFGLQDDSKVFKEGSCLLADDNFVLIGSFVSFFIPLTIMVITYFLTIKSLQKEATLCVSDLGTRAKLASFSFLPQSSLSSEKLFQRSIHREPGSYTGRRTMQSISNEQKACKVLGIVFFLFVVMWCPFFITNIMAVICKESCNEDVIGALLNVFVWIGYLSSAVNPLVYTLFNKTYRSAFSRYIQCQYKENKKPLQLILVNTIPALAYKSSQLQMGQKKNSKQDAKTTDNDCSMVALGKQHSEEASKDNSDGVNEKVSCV
Text: To determine for agonist or antagonist activity of compounds of the invention in functional assays, human recombinant serotonin 5-HT2A receptor expressed in human embryonic kidney (HEK-293) cells (Jerman J C, Brough S J, Gager T, Wood M, Coldwell M C, Smart D and Middlemiss D N. Eur J Pharmacol, 414: 23-30, 2001) was used. Cells were suspended in DMEM buffer, and distributed in microplates. A cytoplasmic calcium fluorescent indicator which varies proportionally to the free cytosolic Ca^2+ ion concentration was mixed with probenicid in HBSS buffer complemented with 20 mM Hepes (pH 7.4), added into each well and equilibrated with the cells for 30 min at 37° C. followed by 30 min at 22° C. […]
The standard reference antagonist was ketanserin, which was tested in each experiment at several concentrations to generate a concentration-response curve from which its IC50 value was calculated.

[4] = 0.3 uM, two values = assay run twice, read-out: Antagonist Activity As Measured by % Inhibition D2L
[5] = two values = assay run twice, read-out: Antagonist Activity As Measured by % Inhibition D2S
[6] = 0.03 uM, two values = assay run twice

Cc1ccc2c(c1)c1c(n2CCc2ccc(C(F)(F)F)nc2)CCN(C)C1 [Compound 68]
inhibition at 0.3 µM [1, 4]: 8% | inhibition at 1 µM ([1]; 1 uM, read-out: Antagonist Activity As Measured by % Inhibition D2L): 27% | inhibition at 3 µM ([1]; 3 uM, read-out: Antagonist Activity As Measured by % Inhibition D2L): 54% | inhibition at 0.3 µM [2, 5]: 42% | inhibition at 1 µM ([2]; 1 uM, read-out: Antagonist Activity As Measured by % Inhibition D2S): 70% | inhibition at 3 µM ([2]; 3 uM, read-out: Antagonist Activity As Measured by % Inhibition D2S): 93%

CN1CCc2c(c3cc(F)ccc3n2CCc2ccc(F)cc2)C1 [Compound 253]
% of Control Agonist Response, 1st Assay ([3]; test concentration 1.00E−06 M): 0% | % of Control Agonist Response, 2nd Assay ([3]; test concentration 1.00E−06 M): 3% | % of Control Agonist Response, Mean ([3]; test concentration 1.00E−06 M): 1.5% | % of Control Agonist Response, 1st Assay ([3]; test concentration 1.00E−07 M): 94% | % of Control Agonist Response, 2nd Assay ([3]; test concentration 1.00E−07 M): 95% | % of Control Agonist Response, Mean ([3]; test concentration 1.00E−07 M): 94.3% | % of Control Agonist Response, 1st Assay ([3]; test concentration 3.00E−06 M): −3% | % of Control Agonist Response, 2nd Assay ([3]; test concentration 3.00E−06 M): −3% | % of Control Agonist Response, Mean ([3]; test concentration 3.00E−06 M): −2.6% | % of Control Agonist Response, 1st Assay ([3]; test concentration 3.00E−07 M): 36% | % of Control Agonist Response, 2nd Assay ([3]; test concentration 3.00E−07 M): 80% | % of Control Agonist Response, Mean ([3]; test concentration 3.00E−07 M): 57.9% | % of Control Agonist Response, 1st Assay ([3]; test concentration 3.00E−08 M): 114% | % of Control Agonist Response, 2nd Assay ([3]; test concentration 3.00E−08 M): 119% | % of Control Agonist Response, Mean ([3]; test concentration 3.00E−08 M): 116.5% | Antagonist Activity As Measured by % Inhibition D2L [1, 6]: 56% | inhibition at 0.03 µM ([1]; 0.03 uM, two values = assay run twice, read-out: Antagonist Activity As Measured by % Inhibition D2L): 36% | Antagonist Activity As Measured by % Inhibition D2L ([1]; 0.1 uM, two values = assay run twice): 77% | inhibition at 0.1 µM ([1]; 0.1 uM, two values = assay run twice, read-out: Antagonist Activity As Measured by % Inhibition D2L): 57% | Antagonist Activity As Measured by % Inhibition D2L ([1]; 0.3 uM, two values = assay run twice): 89% | inhibition at 0.3 µM [1, 4]: 81% | Antagonist Activity As Measured by % Inhibition D2S [2, 6]: 104% and 80% | inhibition at 0.1 µM ([2]; 0.1 uM, two values = assay run twice, read-out: Antagonist Activity As Measured by % Inhibition D2S): 94% | inhibition at 0.3 µM [2, 5]: 96%
